Patent US7361659B2, “Pyrrazolo-pyrimidine derivatives” (Hoffmann-La Roche Inc., priority 2005, dated 2008)

| melting point [°C] | Compound |
| --- | --- |
| 264 | CC(C)(CO)NS(=O)(=O)c1cc(NC(=O)c2cnn3c(C(F)(F)F)cc(-c4ccc(C(F)(F)F)c(OCC(F)(F)F)c4)nc23)c(Cl)s1 [Example 17, 5-[3-(2,2,2-Trifluoro-ethoxy)-4-trifluoromethyl-phenyl]-7-trifluoromethyl-pyrazolo[1,5-a]pyrimidine-3-carboxylic acid [2-chloro-5-(2-hydroxy-1,1-dimethyl-ethylsulfamoyl)-thiophen-3-yl]-amide] |
| 309 | Cc1cc(-c2cc(C(F)(F)F)n3ncc(C(=O)Nc4nc(C)c(S(N)(=O)=O)s4)c3n2)ccc1C(F)(F)F [Example 21, 5-(3-Methyl-4-trifluoromethyl-phenyl)-7-trifluoromethyl-pyrazolo[1,5-a]pyrimidine-3-carboxylic acid (4-methyl-5-sulfamoyl-thiazol-2-yl)-amide] |
| 309 | NS(=O)(=O)c1cnc(NC(=O)c2cnn3c(C(F)(F)F)cc(-c4ccc(C(F)(F)F)cc4)nc23)s1 [Example 51, 7-Trifluoromethyl-5-(4-trifluoromethyl-phenyl)-pyrazolo[1,5-a]pyrimidine-3-carboxylic acid (5-sulfamoyl-thiazol-2-yl)-amide] |
| 234 | CCOc1cc(-c2cc(C(F)(F)F)n3ncc(C(=O)Nc4cc(S(=O)(=O)NC(C)(C)CO)sc4Cl)c3n2)ccc1C(F)(F)F [Example 15, 5-(3-Ethoxy-4-trifluoromethyl-phenyl)-7-trifluoromethyl-pyrazolo[1,5-a]pyrimidine-3-carboxylic acid [2-chloro-5-(2-hydroxy-1,1-dimethyl-ethylsulfamoyl)-thiophen-3-yl]-amide] |
| 284 | Cc1nc(NC(=O)c2cnn3c(C(F)F)cc(-c4ccc(C(F)(F)F)cc4)nc23)sc1S(N)(=O)=O [Example 7, 7-Difluoromethyl-5-(4-trifluoromethyl-phenyl)-pyrazolo[1,5-a]pyrimidine-3-carboxylic acid (4-methyl-5-sulfamoyl-thiazol-2-yl)-amide] |
| 241 | O=C(Nc1cc(S(=O)(=O)NC(CO)CO)sc1Cl)c1cnn2c(C(F)F)cc(-c3ccc(C(F)(F)F)cc3)nc12 [Example 28, 7-Difluoromethyl-5-(4-trifluoromethyl-phenyl)-pyrazolo[1,5-a]pyrimidine-3-carboxylic acid [2-chloro-5-(2-hydroxy-1-hydroxymethyl-ethylsulfamoyl)-thiophen-3-yl]-amide] |
| 300 | CCOc1cc(-c2cc(C(F)(F)F)n3ncc(C(=O)Nc4nc(C)c(S(N)(=O)=O)s4)c3n2)ccc1C(F)(F)F [Example 20, 5-(3-Ethoxy-4-trifluoromethyl-phenyl)-7-trifluoromethyl-pyrazolo[1,5-a]pyrimidine-3-carboxylic acid (4-methyl-5-sulfamoyl-thiazol-2-yl)-amide] |
| 266 | Cc1nc(NC(=O)c2cnn3c(C(F)(F)F)cc(-c4ccc(C(F)(F)F)cc4)nc23)sc1S(=O)(=O)N(C)CCO [Example 71, 7-Trifluoromethyl-5-(4-trifluoromethyl-phenyl)-pyrazolo[1,5-a]pyrimidine-3-carboxylic acid {5-[(2-hydroxy-ethyl)-methyl-sulfamoyl]-4-methyl-thiazol-2-yl}-amide] |
| 265 | Cc1nc(NC(=O)c2cnn3c(C(F)(F)F)cc(-c4ccc(Cl)c(Cl)c4)nc23)sc1S(=O)(=O)NC(C)(C)CO [Example 31, 5-(3,4-Dichloro-phenyl)-7-trifluoromethyl-pyrazolo[1,5-a]pyrimidine-3-carboxylic acid [5-(2-hydroxy-1,1-dimethyl-ethylsulfamoyl)-4-methyl-thiazol-2-yl]-amide] |
| 180 | Cc1sc(S(=O)(=O)NC(C)(C)CO)cc1NC(=O)c1cnn2c(C(F)F)cc(-c3ccc(C(F)(F)F)cc3)nc12 [Example 50, 7-Difluoromethyl-5-(4-trifluoromethyl-phenyl)-pyrazolo[1,5-a]pyrimidine-3-carboxylic acid [5-(2-hydroxy-1,1-dimethyl-ethylsulfamoyl)-2-methyl-thiophen-3-yl]-amide] |
| 313 | Cc1sc(S(N)(=O)=O)cc1NC(=O)c1cnn2c(C(F)F)cc(-c3ccc(C(F)(F)F)cc3)nc12 [Example 48, 7-Difluoromethyl-5-(4-trifluoromethyl-phenyl)-pyrazolo[1,5-a]pyrimidine-3-carboxylic acid (2-methyl-5-sulfamoyl-thiophen-3-yl)-amide] |
| 195 | NCCNS(=O)(=O)c1cc(NC(=O)c2cnn3c(C(F)(F)F)cc(-c4ccc(C(F)(F)F)cc4)nc23)c(Cl)s1 [Example 78, 7-Trifluoromethyl-5-(4-trifluoromethyl-phenyl)-pyrazolo[1,5-a]pyrimidine-3-carboxylic acid [5-(2-amino-ethylsulfamoyl)-2-chloro-thiophen-3-yl]-amide] |
| 221 | CN(CCO)S(=O)(=O)c1cc(NC(=O)c2cnn3c(C(F)(F)F)cc(-c4ccc(C(F)(F)F)cc4)nc23)c(Cl)s1 [Example 77, 7-Trifluoromethyl-5-(4-trifluoromethyl-phenyl)-pyrazolo[1,5-a]pyrimidine-3-carboxylic acid {2-chloro-5-[(2-hydroxy-ethyl)-methyl-sulfamoyl]-thiophen-3-yl}-amide] |
| 257 | Cc1nc(NC(=O)c2cnn3c(C(F)(F)F)cc(-c4ccc(C(F)(F)F)cc4)nc23)sc1S(=O)(=O)NC(C)(C)CO [Example 13, 7-Trifluoromethyl-5-(4-trifluoromethyl-phenyl)-pyrazolo[1,5-a]pyrimidine-3-carboxylic acid [5-(2-hydroxy-1,1-dimethyl-ethylsulfamoyl)-4-methyl-thiazol-2-yl]-amide] |
| 233 | CC(C)(CO)NS(=O)(=O)c1cc(NC(=O)c2cnn3c(C(F)F)cc(-c4ccc(C(F)(F)F)cc4)nc23)c(Cl)s1 [Example 5, 7-Difluoromethyl-5-(4-trifluoromethyl-phenyl)-pyrazolo[1,5-a]pyrimidine-3-carboxylic acid [2-chloro-5-(2-hydroxy-1,1-dimethyl-ethylsulfamoyl)-thiophen-3-yl]-amide] |
| 297 | Cc1sc(S(N)(=O)=O)cc1NC(=O)c1cnn2c(C(F)(F)F)cc(-c3ccc(C(F)(F)F)cc3)nc12 [Example 47, 7-Trifluoromethyl-5-(4-trifluoromethyl-phenyl)-pyrazolo[1,5-a]pyrimidine-3-carboxylic acid (2-methyl-5-sulfamoyl-thiophen-3-yl)-amide] |
| 299 | Cc1nc(NC(=O)c2cnn3c(C(F)(F)F)cc(-c4ccc(C(F)(F)F)c(Cl)c4)nc23)sc1S(N)(=O)=O [Example 25, 5-(3-Chloro-4-trifluoromethyl-phenyl)-7-trifluoromethyl-pyrazolo[1,5-a]pyrimidine-3-carboxylic acid (4-methyl-5-sulfamoyl-thiazol-2-yl)-amide] |
| 300 | Cc1nc(NC(=O)c2cnn3c(C(F)(F)F)cc(-c4ccc(C(F)(F)F)cc4)nc23)sc1S(=O)(=O)N1CCC(O)C1 (racemic) [Example 76, 7-Trifluoromethyl-5-(4-trifluoromethyl-phenyl)-pyrazolo[1,5-a]pyrimidine-3-carboxylic acid [(RS)-5-(3-hydroxy-pyrrolidine-1-sulfonyl)-4-methyl-thiazol-2-yl]-amide] |
